Reference: US5099015A, “Trifluoromethyl 1-carba(1-dethia)cephems” (Eli Lilly and Company, priority 1991, dated 1992)
Converted amounts (≈) assume the structure as drawn. Like-named read-outs stand apart in the source and are kept apart here.

Key:
Assay in all cases: Agar dilution antibacterial test (MIC)
Assay type in all cases: cell-based
Acom AC12 = tested on: Acom AC12
Experimental: (§1) Fresh overnight cultures of test bacteria were diluted to approximately 1x(10)4 cells/microliter and applied in one microliter volumes to the surfaces of the agar plates. The innoculated plates were incubated overnight at 35° C. in ambient air. Minimum inhibitory concentration (mic) endpoints were recorded as the lowest antibiotic concentrations in micrograms per milliliter that inhibited the development of visible growth on the plates. The following summarizes the results of such tests with the compounds of the examples listed above.

Citro CF17 = tested on: Citro CF17
Experimental: as §1

[1] = tested on: Enterobacter aerogenes C32
Experimental: as §1

[2] = tested on: Enterobacter aerogenes EB17
Experimental: as §1

[3] = tested on: Enterobacter cloacae 265A
Experimental: as §1

Enterobacter cloacae EB5 = tested on: Enterobacter cloacae EB5
Experimental: as §1

[4] = tested on: Enterococcus faecalis 2041
Experimental: as §1

Enterococcus faecium X66 = tested on: Enterococcus faecium X66
Experimental: as §1

Escherichia coli EC14 = tested on: Escherichia coli EC14
Experimental: as §1

Escherichia coli N10 = tested on: Escherichia coli N10
Experimental: as §1

Escherichia coli TEM = tested on: Escherichia coli TEM
Experimental: as §1

[5] = tested on: Haemophilus influenzae 76
Experimental: as §1

[6] = tested on: Haemophilus influenzae C.L.
Experimental: as §1

[7] = tested on: Klebsiella pneumoniae KAE
Experimental: as §1

[8] = tested on: Klebsiella pneumoniae X26
Experimental: as §1

[9] = tested on: Klebsiella pneumoniae X68
Experimental: as §1

Morg morg PR15 = tested on: Morg morg PR15
Experimental: as §1

Proteus incon PR33 = tested on: Proteus incon PR33
Experimental: as §1

Proteus rett C24 = conditions: Proteus rett C24
Experimental: as §1

Salmonella 1335 = tested on: Salmonella 1335
Experimental: as §1

Salmonella X514 = tested on: Salmonella X514
Experimental: as §1

Serratia SE3 = tested on: Serratia SE3
Experimental: as §1

Serratia X99 = tested on: Serratia X99
Experimental: as §1

[10] = tested on: Staphylococcus aureus NRRL X1.1
Experimental: as §1

[11] = tested on: Staphylococcus aureus S13E
Experimental: as §1

[12] = tested on: Staphylococcus aureus V41
Experimental: as §1

[13] = tested on: Staphylococcus aureus X400
Experimental: as §1

[14] = tested on: Staphylococcus epidermidis 222
Experimental: as §1

[15] = tested on: Staphylococcus epidermidis EPI270
Experimental: as §1

[16] = tested on: Staphylococcus pneumoniae Park 1
Experimental: as §1

[17] = tested on: Staphylococcus pyogenes C203
Experimental: as §1

Shig sonn. N9 = tested on: Shig sonn. N9
Experimental: as §1

[18] = Klebsiella aerogenes, read-out: MIC

Work on `NC(C(=O)N[C@@H]1C(=O)N2C(C(=O)O)=C(C(F)(F)F)CC[C@H]12)c1cccc(C(F)(F)F)c1` (stereo partly drawn) [Compound 9, [6R,7S]-7-β-[D-α-(amino)-3-trifluoromethylphenylacetylamino]-3-trifluoromethyl-1-carba-1-carba-1-dethia3-cephem-4-carboxylic acid] yielded an MIC (Acom AC12) of 32 µg/mL (≈ 70.9 µM), an MIC (Citro CF17) of 128 µg/mL (≈ 284 µM) and an MIC [1] of 128 µg/mL (≈ 284 µM). The MIC [2] was 128 µg/mL (≈ 284 µM), the MIC [3] was 128 µg/mL (≈ 284 µM) and the MIC (Enterobacter cloacae EB5) was 4 µg/mL (≈ 8.86 µM). The MIC [4] was 16 µg/mL (≈ 35.5 µM), the MIC (Enterococcus faecium X66) was 32 µg/mL (≈ 70.9 µM) and the MIC (Escherichia coli EC14) was 8 µg/mL (≈ 17.7 µM). It also gave an MIC (Escherichia coli N10) of 32 µg/mL (≈ 70.9 µM), an MIC (Escherichia coli TEM) of 16 µg/mL (≈ 35.5 µM) and an MIC [5] of 1 µg/mL (≈ 2.22 µM). For the same compound, the MIC [6] was 1 µg/mL (≈ 2.22 µM), the MIC [7] was 64 µg/mL (≈ 142 µM) and the MIC [8] was 1 µg/mL (≈ 2.22 µM). The MIC [9] was 16 µg/mL (≈ 35.5 µM), the MIC (Morg morg PR15) was 32 µg/mL (≈ 70.9 µM) and the MIC (Proteus incon PR33) was 32 µg/mL (≈ 70.9 µM). For the same compound, the MIC (Proteus rett C24) was 64 µg/mL (≈ 142 µM), the MIC (Salmonella 1335) was 64 µg/mL (≈ 142 µM) and the MIC (Salmonella X514) was 32 µg/mL (≈ 70.9 µM). The MIC (Serratia SE3) was > 128 µg/mL, the MIC (Serratia X99) was 128 µg/mL (≈ 284 µM) and the MIC [10] was 2 µg/mL (≈ 4.43 µM). The MIC [11] was 16 µg/mL (≈ 35.5 µM), the MIC [12] was 4 µg/mL (≈ 8.86 µM) and the MIC [13] was 16 µg/mL (≈ 35.5 µM). For the same compound, the MIC [14] was 1 µg/mL (≈ 2.22 µM), the MIC [15] was 4 µg/mL (≈ 8.86 µM) and the MIC [16] was “.125 µg/mL”. The MIC [17] was 6 µg/mL (≈ 13.3 µM).

With `N[C@@H](C(=O)N[C@@H]1C(=O)N2C(C(=O)O)=C(C(F)(F)F)CC[C@H]12)c1ccc(O)cc1` [Compound 2, [6R,7S]-7β-[D-α-(amino)-4-hydroxyphenylacetylamino]-3-trifluoromethyl-1-carba-1-dethia-3-cephem-4-carboxylic acid] the MIC (Acom AC12; read-out: MIC) was 21.3 µg/mL (≈ 53.3 µM), the MIC (Citro CF17; read-out: MIC) was 5.3 µg/mL (≈ 13.3 µM) and the MIC [1, 18] was 2.08 µg/mL (≈ 5.21 µM). It also gave an MIC [2, 18] of 1.83 µg/mL (≈ 4.58 µM), an MIC ([3]; read-out: MIC) of 2.3 µg/mL (≈ 5.76 µM) and an MIC (Enterobacter cloacae EB5; read-out: MIC) of 4.3 µg/mL (≈ 10.8 µM). For the same compound, the MIC ([4]; read-out: MIC) was 22.4 µg/mL (≈ 56.1 µM), the MIC (Enterococcus faecium X66; read-out: MIC) was 32 µg/mL (≈ 80.1 µM) and the MIC (Escherichia coli EC14; read-out: MIC) was 0.48 µg/mL (≈ 1.2 µM). For the same compound, the MIC (Escherichia coli N10; read-out: MIC) was 0.85 µg/mL (≈ 2.13 µM), the MIC (Escherichia coli TEM; read-out: MIC) was 0.75 µg/mL (≈ 1.88 µM) and the MIC ([5]; read-out: MIC) was 0.9 µg/mL (≈ 2.25 µM). The MIC ([6]; read-out: MIC) was 0.7 µg/mL (≈ 1.75 µM), the MIC ([7]; read-out: MIC) was 2.3 µg/mL (≈ 5.76 µM) and the MIC ([8]; read-out: MIC) was 0.3 µg/mL (≈ 0.751 µM). The MIC ([9]; read-out: MIC) was 0.6 µg/mL (≈ 1.5 µM), the MIC (Morg morg PR15; read-out: MIC) was 26.7 µg/mL (≈ 66.9 µM) and the MIC (Proteus incon PR33; read-out: MIC) was 2.3 µg/mL (≈ 5.76 µM). It also gave an MIC (Proteus rett C24; read-out: MIC) of 6.7 µg/mL (≈ 16.8 µM), an MIC (Salmonella 1335; read-out: MIC) of 0.58 µg/mL (≈ 1.45 µM) and an MIC (Salmonella X514; read-out: MIC) of 0.19 µg/mL (≈ 0.476 µM). For the same compound, the MIC (Serratia SE3; read-out: MIC) was 16 µg/mL (≈ 40.1 µM), the MIC (Serratia X99; read-out: MIC) was 4.7 µg/mL (≈ 11.8 µM) and the MIC (Shig sonn. N9; read-out: MIC) was 0.58 µg/mL (≈ 1.45 µM). The MIC ([10]; NRRLX1.1, read-out: MIC) was 0.85 µg/mL (≈ 2.13 µM), the MIC [11] was 70.4 µg/mL (≈ 176 µM) and the MIC ([12]; read-out: MIC) was 7.2 µg/mL (≈ 18 µM). It also gave an MIC ([13]; read-out: MIC) of 102 µg/mL (≈ 255 µM), an MIC ([14]; read-out: MIC) of 2.2 µg/mL (≈ 5.51 µM) and an MIC ([15]; read-out: MIC) of 4.4 µg/mL (≈ 11 µM). It also gave an MIC ([16]; PARK1, read-out: MIC) of 0.2 µg/mL (≈ 0.501 µM) and an MIC ([17]; read-out: MIC) of 0.025 µg/mL (≈ 0.0626 µM).

In the case of `N[C@@H](C(=O)N[C@@H]1C(=O)N2C(C(=O)O)=C(C(F)(F)F)CC[C@H]12)c1cccc(F)c1` [Compound 8], the MIC (Citro CF17; read-out: MIC) is reported as 16 µg/mL (≈ 39.9 µM), the MIC [1, 18] is reported as 16 µg/mL (≈ 39.9 µM) and the MIC [2, 18] is reported as 8 µg/mL (≈ 19.9 µM). The MIC ([3]; read-out: MIC) was 32 µg/mL (≈ 79.7 µM), the MIC (Enterobacter cloacae EB5; read-out: MIC) was 16 µg/mL (≈ 39.9 µM) and the MIC ([4]; read-out: MIC) was 32 µg/mL (≈ 79.7 µM). The MIC (Enterococcus faecium X66; read-out: MIC) was 64 µg/mL (≈ 159 µM), the MIC (Escherichia coli EC14; read-out: MIC) was 4 µg/mL (≈ 9.97 µM) and the MIC (Escherichia coli N10; read-out: MIC) was 4 µg/mL (≈ 9.97 µM). It also gave an MIC (Escherichia coli TEM; read-out: MIC) of 2 µg/mL (≈ 4.98 µM), an MIC ([5]; read-out: MIC) of 2 µg/mL (≈ 4.98 µM) and an MIC ([6]; read-out: MIC) of 2 µg/mL (≈ 4.98 µM). It also gave an MIC ([7]; read-out: MIC) of 16 µg/mL (≈ 39.9 µM), an MIC ([8]; read-out: MIC) of 2 µg/mL (≈ 4.98 µM) and an MIC ([9]; read-out: MIC) of 2 µg/mL (≈ 4.98 µM). It also gave an MIC (Morg morg PR15; read-out: MIC) of 32 µg/mL (≈ 79.7 µM), an MIC (Proteus incon PR33; read-out: MIC) of 16 µg/mL (≈ 39.9 µM) and an MIC (Proteus rett C24; read-out: MIC) of 16 µg/mL (≈ 39.9 µM). The MIC (Salmonella 1335; read-out: MIC) was 4 µg/mL (≈ 9.97 µM), the MIC (Salmonella X514; read-out: MIC) was 2 µg/mL (≈ 4.98 µM) and the MIC (Serratia SE3; read-out: MIC) was 64 µg/mL (≈ 159 µM). The MIC (Serratia X99; read-out: MIC) was 32 µg/mL (≈ 79.7 µM), the MIC (Shig sonn. N9; read-out: MIC) was 2 µg/mL (≈ 4.98 µM) and the MIC ([10]; NRRLX1.1, read-out: MIC) was 2 µg/mL (≈ 4.98 µM). The MIC [11] was 32 µg/mL (≈ 79.7 µM), the MIC ([12]; read-out: MIC) was 16 µg/mL (≈ 39.9 µM) and the MIC ([13]; read-out: MIC) was 64 µg/mL (≈ 159 µM). It also gave an MIC ([14]; read-out: MIC) of 4 µg/mL (≈ 9.97 µM), an MIC ([15]; read-out: MIC) of 4 µg/mL (≈ 9.97 µM) and an MIC ([16]; PARK1, read-out: MIC) of 0.25 µg/mL (≈ 0.623 µM). It also gave an MIC ([17]; read-out: MIC) of 0.06 µg/mL (≈ 0.15 µM).

For `CON=C(C(=O)N[C@@H]1C(=O)N2C(C(=O)O)=C(C(F)(F)F)CC[C@H]12)c1csc(N)n1` [Compound 4, [7S,6R]-7-([2-Amino-4-thiazolyl(methoxyimino)acetyl]amido)-3-trifluoromethyl-1-carba(b 1-dethia)-3-cephem-4-carboxylic acid], the MIC (Acom AC12) was 16 µg/mL (≈ 36.9 µM), the MIC (Citro CF17) was 8 µg/mL (≈ 18.5 µM) and the MIC [1] was “.25 µg/mL”. For the same compound, the MIC [2] was “.125 µg/mL”, the MIC [3] was 64 µg/mL (≈ 148 µM) and the MIC (Enterobacter cloacae EB5) was “.25 µg/mL”. For the same compound, the MIC [4] was 1 µg/mL (≈ 2.31 µM), the MIC (Enterococcus faecium X66) was > 128 µg/mL and the MIC (Escherichia coli EC14) was “.03 µg/mL”. The MIC (Escherichia coli N10) was “.06 µg/mL”, the MIC (Escherichia coli TEM) was “.125 µg/mL” and the MIC [6] was “.015 µg/mL”. For the same compound, the MIC [7] was 32 µg/mL (≈ 73.8 µM), the MIC [9] was “.015 µg/mL” and the MIC (Morg morg PR15) was 4 µg/mL (≈ 9.23 µM). The MIC (Proteus incon PR33) was “.125 µg/mL”, the MIC (Proteus rett C24) was 1 µg/mL (≈ 2.31 µM) and the MIC (Salmonella 1335) was “.06 µg/mL”. The MIC (Salmonella X514) was “.015 µg/mL”, the MIC (Serratia SE3) was 2 µg/mL (≈ 4.62 µM) and the MIC (Serratia X99) was “.5 µg/mL”. The MIC (Shig sonn. N9) was “.06 µg/mL”, the MIC [10] was 4 µg/mL (≈ 9.23 µM) and the MIC [11] was 16 µg/mL (≈ 36.9 µM). The MIC [12] was 8 µg/mL (≈ 18.5 µM), the MIC [13] was 128 µg/mL (≈ 295 µM) and the MIC [14] was 4 µg/mL (≈ 9.23 µM). For the same compound, the MIC [15] was 8 µg/mL (≈ 18.5 µM).
